The source of these data is patent US6025333A, “Treatment of CNS tumors with metalloprotease inhibitors” (Erziehungsdirektion of the Canton Zurich, priority 1995, dated 2000).

Like-named read-outs stand apart in the source and are kept apart here. Square brackets hold non-standard residues; d marks the D form. Peptide text beside a SMILES is read from it. * marks the point of attachment. Sta = CC(C)C[C@H](N)[C@@H](O)CC(=O)O; Isovaleryl = CC(C)CC(=O)*; Cbz = O=C(OCc1ccccc1)*

The inhibition is how much of the control response was suppressed. Read a high inhibition as a strong effect.

The subject of one assay is C6 cells. The experiment in a line: C6 cell spreading on PLYS or CNS myelin with protease inhibitors. Type of assay: cell-based, rat. The following applies: for Spreading on: PLYS (% of control on PLYS) / Spreading on: CNS (% of control on PLYS) / activity at 300 µM: 150 minutes; for effect on C6 cell spreading on CNS myelin: Table X; for activity at 300 µM / inhibition at 300 µM: Rattus norvegicus; for activity at 300 µM: C6, 2.5 h; for inhibition at 300 µM: C6. The protocol:
Rat C6, mouse NIH 3T3 and B16 cells were cultured in Dulbecco's modified Eagle's medium (DMEM) supplemented with 10% fetal calf serum (FCS), usually to maximally 70-80% confluency. Cells were harvested with a short trypsin treatment (0.1% in Ca^2+ /Mg^2+ -free Hank's medium for 90 seconds) stopped by addition of FCS in excess, collected by centrifugation. Cells were resuspended in either DMEM/FCS or defined serum-free medium (MEM) and used for experiments. Dissociated rat CNS glial cells were prepared starting from optic nerves of 6-7 days old Lewis rats as described in Section 6.1.1, supra and plated into poly-D-lysine (PLYS) coated wells (100 mm^2, 100 μl medium) at a density of 20,000 cells per well. The culture medium was an enriched L15 medium with 5% rat serum, penicillin and streptomycin. C6, 3T3 and B16 cells were added to 2 day old cultures at a concentration of 30,000 cells per well, incubated for two hours and fixed with warm 4% formalin in phosphate buffer. Inhibitory oligodendrocytes were identified by double labelling using the specific antibodies O1 and O4 (see Section 6.1.3, supra).
(§1) Myelin from rat spinal cord (CNS) or sciatic nerve (PNS) purified on a discontinuous sucrose gradient as described in Section 6.1.5., was dried overnight onto PLYS coated wells (20 μg protein/well of 100 mm^2 surface). Unbound membranes were removed by three washes with Ca^2+ /Mg^2+ -free Hank's solution. Myelin coated wells were immediately used in substrate testing assays by the addition of 9,000 cells (C6, 3T3, or B16) per cm^2. Alternatively, we used extracted CNS myelin protein, or SDS-PAGE purified 35 and 250 kD inhibitory proteins reconstituted in liposomes (see Section 7.1.5, supra). Experiments were scored at different time points using a phase contrast microscope equipped with a photocamera. Quantifications were done using a surface integration program; three arbitrary fields were photographed for each well at a magnitude of 80×, at least 25 cells per picture were measured. Each point represents the mean of at least 3 wells±SEM. Results are expressed as μ^2 of projected cell surface, or as degree, which was calculated by subtracting from the projected surface value of a spreading cell, the surface value of a completely spheric cell.

The next assay has as its system 3T3 cells. The experiment in a line: Treatment of CNS myelin with C6 plasma membranes, then 3T3 spreading and 3H-thymidine incorporation. Type of assay: cell-based, mouse. The following applies: blockers added to C6 plasma membranes. The protocol: as §1
C6 cells grown to 80% confluency were washed twice with Hank's medium, and harvested in 20 ml 8.5% sucrose, 50 mM NaCl, 10 mM Tris buffer, pH 7.4, using a rubber policeman. After mechanical homogenization through a series of needles of decreasing size, a low purity plasma membrane fraction was obtained by centrifugation (5 minutes at 3000× g, 10 minutes at 8000× g, and then 2 hours at 100,000× g). A higher purity fraction was isolated by loading the material on a discontinuous sucrose gradient, containing 50 mM NaCl, 10 mM Tris, pH 7.4 (Quigley, 1976, J. Cell Biol. 71: 472-486). 20-40% sucrose interphase (C6 plasma membranes fraction) and 40-60% sucrose interphase (C6 mitochondrial fraction) were collected, washed in Hank's medium and resuspended in MEM.
CNS myelin coated PLYS wells were prepared as described in the previous section, but instead of being immediately tested as substrate, they were first incubated with 50 μl of C6 plasma membranes (containing 0.8 mg protein/ml MEM) at 37° for 30 minutes. Dishes were then rinsed twice with Hank's medium and immediately used as substrates for 3T3 cells. In some experiments, protease blockers were added to the membranes using 10 times concentrated solutions.

Setting [1] is: inhibitor 1.0 mM, PLYS value minus CNS myelin value.
Setting [2] is: inhibitor 0.3 mM, PLYS value minus CNS myelin value.
The mark [3] stands for this setting: inhibitor 0.3 mM, CNS myelin, read-out: Spreading on: CNS (% of control on PLYS).

As for `O=S(=O)(F)Cc1ccccc1` [PMSF, Phenyl methyl sulfonyl fluoride], in the assay with C6 cells (inhibitor 4.0 mM), the “Spreading on: PLYS (% of control on PLYS)” value is recorded as 100 % of control on PLYS. Further, the “Spreading on: CNS (% of control on PLYS)” value in the assay with C6 cells (inhibitor 4.0 mM, CNS myelin) is reported as 94 % of control on PLYS. In the assay on C6 cells (inhibitor 4.0 mM, PLYS value minus CNS myelin value), the “Inhibition on CNS (%)” value is reported as 6%.
With `CC(C)C[C@H](NC(=O)[C@@H](O)[C@H](N)Cc1ccccc1)C(=O)O` [bestatine], the “effect on C6 cell spreading on CNS myelin” value (from here on “effect on C6 cell spreading”) with C6 cells is on record as “did not impair C6 cell spreading”. In addition, the “Inhibition on CNS (%)” value with C6 cells (inhibitor 0.1 mM) is on record as 0%. Also, the “Spreading on: CNS (% of control on PLYS)” value with C6 cells (inhibitor 0.1 mM, CNS myelin) was 104 % of control on PLYS.
For the molecule `NC(=O)CNC(=O)CNC(=O)OCc1ccccc1` [cbz-gly-gly-NH2] (Cbz-Gly-Gly-NH2), in the assay on C6 cells (inhibitor 1.0 mM, CNS myelin), the “Spreading on: CNS (% of control on PLYS)” value is reported as 99 % of control on PLYS. In addition, the “Inhibition on CNS (%)” value in the assay with C6 cells (setting [1]) was 1%.
Regarding `CC(C)C[C@H](NC(=O)[C@H](Cc1ccccc1)NCC(=O)O)C(=O)O` [cm-phe-leu, Carboxymethyl-phe-leu], the “effect on C6 cell spreading” value in the assay with C6 cells is “did not inhibit C6 cell spreading”. Moreover, the “Spreading on: PLYS (% of control on PLYS)” value with C6 cells (inhibitor 0.5 mM) is listed as 95 % of control on PLYS. Moreover, the “Spreading on: CNS (% of control on PLYS)” value with C6 cells (inhibitor 0.5 mM, CNS myelin) was 92 % of control on PLYS. Also, the “Inhibition on CNS (%)” value in the assay on C6 cells (inhibitor 0.5 mM, PLYS value minus CNS myelin value) was found to be 3%.
On to `CC(=O)N[C@@H](CC(C)C)C(=O)N[C@@H](CC(C)C)C(=O)N[C@H](C=O)CCCNC(=N)N` [leupeptine], for which the “Spreading on: PLYS (% of control on PLYS)” value in the assay on C6 cells (inhibitor 0.3 mM) is given as 91 % of control on PLYS. The “Spreading on: CNS (% of control on PLYS)” value in the assay with C6 cells (inhibitor 0.3 mM, CNS myelin) is 83 % of control on PLYS. For the same molecule, the “Inhibition on CNS (%)” value in the assay on C6 cells (setting [2]) stood at 8%. Besides, the “effect on the C6 plasma membrane effect (neutralization of CNS myelin inhibitory activity)” value in the assay on 3T3 cells was “did not inhibit this effect”.
For `CC(C)CC(=O)N[C@H](C(=O)N[C@H](C(=O)N[C@@H](CC(C)C)[C@@H](O)CC(=O)N[C@@H](C)C(=O)N[C@@H](CC(C)C)[C@@H](O)CC(=O)O)C(C)C)C(C)C` [pepstatine] (Isovaleryl-VV[Sta]A[Sta]-OH), the activity at 300 µM stood at 98% in the assay with C6 cells (inhibitor 0.3 mM, read-out: Spreading on: PLYS (% of control on PLYS)) and 95% in the assay on C6 cells (setting [3]). Also, testing at 300 µM with C6 cells (setting [2]) gave an inhibition of 3%. In addition, in the assay on 3T3 cells, the “effect on the C6 plasma membrane effect (neutralization of CNS myelin inhibitory activity)” value is recorded as “did not inhibit this effect”.
`CC(C)C[C@H](NP(=O)(O)O[C@@H]1O[C@@H](C)[C@H](O)[C@@H](O)[C@H]1O)C(=O)N[C@@H](Cc1c[nH]c2ccccc12)C(=O)O` [phosphoramidon]: the activity at 300 µM in the assay on C6 cells (setting [3]) amounted to 91%. Also, the inhibition at 300 µM with C6 cells (setting [2]) came out at 9%. For the same molecule, the “effect on C6 cell spreading” value in the assay on C6 cells is “did not impair C6 cell spreading”.
Take “carbobenzoxy-glycine-phenylalanine-amide [cbz-gly-phe-NH2]”: the “inhibition of C6 cell spreading on CNS myelin” value with C6 cells is listed as 55%. Besides, in the assay with C6 cells (inhibitor 1.0 mM), the “Spreading on: PLYS (% of control on PLYS)” value is on record as 100 % of control on PLYS. For the same molecule, in the assay on C6 cells (inhibitor 1.0 mM, CNS myelin), the “Spreading on: CNS (% of control on PLYS)” value is 45 % of control on PLYS. Further, the “Inhibition on CNS (%)” value in the assay on C6 cells (setting [1]) was 55%. Moreover, the “effect on the C6 plasma membrane effect (neutralization of CNS myelin inhibitory activity)” value in the assay with 3T3 cells is “completely blocked”.

B1: 2-macroglobulin: general protease inhibitor (protein, UniProt P01023 24-1474, looked up)
Alpha-2-macroglobulin: SVSGKPQYMVLVPSLLHTETTEKGCVLLSYLNETVTVSASLESVRGNRSLFTDLEAENDVLHCVAFAVPKSSSNEEVMFLTVQVKGPTQEFKKRTTVMVKNEDSLVFVQTDKSIYKPGQTVKFRVVSMDENFHPLNELIPLVYIQDPKGNRIAQWQSFQLEGGLKQFSFPLSSEPFQGSYKVVVQKKSGGRTEHPFTVEEFVLPKFEVQVTVPKIITILEEEMNVSVCGLYTYGKPVPGHVTVSICRKYSDASDCHGEDSQAFCEKFSGQLNSHGCFYQQVKTKVFQLKRKEYEMKLHTEAQIQEEGTVVELTGRQSSEITRTITKLSFVKVDSHFRQGIPFFGQVRLVDGKGVPIPNKVIFIRGNEANYYSNATTDEHGLVQFSINTTNVMGTSLTVRVNYKDRSPCYGYQWVSEEHEEAHHTAYLVFSPSKSFVHLEPMSHELPCGHTQTVQAHYILNGGTLLGLKKLSFYYLIMAKGGIVRTGTHGLLVKQEDMKGHFSISIPVKSDIAPVARLLIYAVLPTGDVIGDSAKYDVENCLANKVDLSFSPSQSLPASHAHLRVTAAPQSVCALRAVDQSVLLMKPDAELSASSVYNLLPEKDLTGFPGPLNDQDNEDCINRHNVYINGITYTPVSSTNEKDMYSFLEDMGLKAFTNSKIRKPKMCPQLQQYEMHGPEGLRVGFYESDVMGRGHARLVHVEEPHTETVRKYFPETWIWDLVVVNSAGVAEVGVTVPDTITEWKAGAFCLSEDAGLGISSTASLRAFQPFFVELTMPYSVIRGEAFTLKATVLNYLPKCIRVSVQLEASPAFLAVPVEKEQAPHCICANGRQTVSWAVTPKSLGNVNFTVSAEALESQELCGTEVPSVPEHGRKDTVIKPLLVEPEGLEKETTFNSLLCPSGGEVSEELSLKLPPNVVEESARASVSVLGDILGSAMQNTQNLLQMPYGCGEQNMVLFAPNIYVLDYLNETQQLTPEIKSKAIGYLNTGYQRQLNYKHYDGSYSTFGERYGRNQGNTWLTAFVLKTFAQARAYIFIDEAHITQALIWLSQRQKDNGCFRSSGSLLNNAIKGGVEDEVTLSAYITIALLEIPLTVTHPVVRNALFCLESAWKTAQEGDHGSHVYTKALLAYAFALAGNQDKRKEVLKSLNEEAVKKDNSVHWERPQKPKAPVGHFYEPQAPSAEVEMTSYVLLAYLTAQPAPTSEDLTSATNIVKWITKQQNAQGGFSSTQDTVVALHALSKYGAATFTRTGKAAQVTIQSSGTFSSKFQVDNNNRLLLQQVSLPELPGEYSMKVTGEGCVYLQTSLKYNILPEKEEFPFALGVQTLPQTCDEPKAHTSFQISLSVSYTGSRSASNMAIVDVKMVSGFIPLKPTVKMLERSNHVSRTEVSSNHVLIYLDKVSNQTLSLFFTVLQDVPVRDLKPAIVKVYDYYETDEFAIAEYNAPCSKDLGNA
On to B1, for which the “Spreading on: PLYS (% of control on PLYS)” value in the assay with C6 cells (inhibitor 3.0 μM) is listed as 70 % of control on PLYS. Also, the “Spreading on: CNS (% of control on PLYS)” value in the assay with C6 cells (inhibitor 3.0 μM, CNS myelin) is given as 52 % of control on PLYS. In addition, in the assay with C6 cells (inhibitor 3.0 μM, PLYS value minus CNS myelin value), the “Inhibition on CNS (%)” value is reported as 18%.
